Results from patent US9138465B2, “Pharmaceutical composition for treating lysosomal storage disease” (OSAKA UNIVERSITY, priority 2011, dated 2015).

Legend:
Type in all cases: cell-based
COS-1 cell = test: Enzyme activities in culture supernatant of COS-1 cell + NH4Cl
Description: (§1) The activities of lysosomal enzymes were measured by a standard method using an artificial 4-methylumbelliferyl substrate. Briefly, a sample was incubated with the artificial substrate at 37° C. for 1 hour in an acidic phosphate or citrate buffer, and fluorescence was measured on a microplate reader at an excitation wavelength of 365 nm and an emission wavelength of 450 nm. For galactocerebrosidase, 6-hexadecanoylamino-4-methylumbelliferyl β-D-galactopyranoside (Slater and Frith Ltd.) was used as a substrate, and fluorescence was measured at an excitation wavelength of 385 nm and an emission wavelength of 450 nm. The enzyme activities were calculated as nmol/h/μL.
(§2) In a culture dish with a diameter of 10 cm, a COS-1 cell was cultured in a standard culture medium until the cell became confluent. To the cultured COS-1 cell, ammonium chloride was added in such an amount that the concentration became 20 mM in the culture medium. Then, the cell was cultured. Three days after, a culture supernatant was collected, and filtered with a 0.2 μm sterilizing filter to remove large debris and living cells. After the filtration, the activities of lysosomal enzymes contained in the supernatant were measured by the same method as described in Example 1. As a control, a culture supernatant of a COS-1 cell that was cultured in a standard culture medium with no addition of ammonium chloride was used to measure the activities of lysosomal enzymes in the culture supernatant.
In Table 3, β-Gal means β-galactosidase, total β-Hex means total β-hexosaminidase, β-Hex A means β-hexosaminidase A, β-Gluc means β-glucosidase, α-Man means α-mannosidase, α-Fuc means α-fucosidase, α-Gluc means α-glucosidase, α-Gal means α-galactosidase, β-Glucuro means β-glucuronidase, α-L-Iduro means α-L-iduronidase, and GALC means galactocerebrosidase. NH4Cl(−) means a culture supernatant in the case of no addition of ammonium chloride. NH4Cl(+) means a culture supernatant in the case of addition of ammonium chloride. The enzyme activity is expressed as nmol/h/μL.

normal skin fibroblast = test: Enzyme activities in culture supernatants of normal cell + various reagents; settings: for GALC enzyme activity in culture supernatant / total β-Hex enzyme activity in culture supernatant / α-Fuc enzyme activity in culture supernatant / α-Gal enzyme activity in culture supernatant / α-Gluc enzyme activity in culture supernatant / α-Iduro enzyme activity in culture supernatant / α-Man enzyme activity in culture supernatant / β-Gal enzyme activity in culture supernatant / β-Gluc enzyme activity in culture supernatant / β-Glucuro enzyme activity in culture supernatant / β-Hex A enzyme activity in culture supernatant: NH4Cl 20 mM, CQ 20 uM, Bafilo 20 nM; for excretion of group of lysosomal enzymes compared with no reagent added: Tables 1 and 2
Description: In a culture dish with a diameter of 10 cm, a normal skin fibroblast was cultured in a DMEM medium containing 10% FBS (fetal bovine serum) and a recommended amount of an antibiotic and/or an antibacterial agent [Gibco (registered trade name) Antibiotic-Antimycotic, Life Technologies] (hereinafter, referred to as “a standard culture medium”) until the cell became confluent. To the cultured normal skin fibroblast, ammonium chloride was added in such an amount that the concentration of ammonium chloride became 20 mM in the culture medium. Then, the cell was cultured. Seven days after, a culture supernatant was collected, and filtered with a 0.2 μm sterilizing filter to remove large debris and living cells. After the filtration, the activities of lysosomal enzymes contained in the supernatant were measured by a method as described later.
To confirm that the lysosomal enzyme group thus obtained contained lysosomal enzymes, the culture supernatant obtained after addition of ammonium chloride and culture was subjected to measurement of the activities of lysosomal enzymes. As controls, a culture supernatant of a normal skin fibroblast that was cultured without addition of ammonium chloride, and a culture supernatant of an ML-II patient-derived skin fibroblast (hereinafter, referred to as “an ML-II cell”) that was cultured without addition of ammonium chloride were used to measure the activities of lysosomal enzymes in the culture supernatant.
as §1
as §2, with “normal skin fibroblast” for “COS-1 cell”, “To the cultured COS-1 cell, ammonium chloride was added in such an amount that the concentration became 20 mM in the culture medium.” left out, “Five days after and 7” for “Three”, “any reagents” for “ammonium chloride”
In Tables 1 and 2, β-Gal means β-galactosidase, total β-Hex means total β-hexosaminidase, β-Hex A means β-hexosaminidase A, β-Gluc means β-glucosidase, α-Man means α-mannosidase, α-Fuc means α-fucosidase, α-Gluc means α-glucosidase, α-Gal means α-galactosidase, β-Glucuro means β-glucuronidase, α-L-Iduro means α-L-iduronidase, and GALC means galactocerebrosidase. SCM means a standard culture medium with no addition of any reagents. […] Bafilo means bafilomycin A1. The enzyme activity is expressed as nmol/h/μL.

[1] = target: T1, mannose 6-phosphate receptor (Homo sapiens, UniProt P11717); test: Competitive inhibition test for mannose 6-phosphate; settings: ML-II cell, FIG. 4
T1 construct: a mannose 6-phosphate receptor on the cell surface; endogenous in cells; host or cells: ML-II cell
T1 sequence (P11717 41-2491): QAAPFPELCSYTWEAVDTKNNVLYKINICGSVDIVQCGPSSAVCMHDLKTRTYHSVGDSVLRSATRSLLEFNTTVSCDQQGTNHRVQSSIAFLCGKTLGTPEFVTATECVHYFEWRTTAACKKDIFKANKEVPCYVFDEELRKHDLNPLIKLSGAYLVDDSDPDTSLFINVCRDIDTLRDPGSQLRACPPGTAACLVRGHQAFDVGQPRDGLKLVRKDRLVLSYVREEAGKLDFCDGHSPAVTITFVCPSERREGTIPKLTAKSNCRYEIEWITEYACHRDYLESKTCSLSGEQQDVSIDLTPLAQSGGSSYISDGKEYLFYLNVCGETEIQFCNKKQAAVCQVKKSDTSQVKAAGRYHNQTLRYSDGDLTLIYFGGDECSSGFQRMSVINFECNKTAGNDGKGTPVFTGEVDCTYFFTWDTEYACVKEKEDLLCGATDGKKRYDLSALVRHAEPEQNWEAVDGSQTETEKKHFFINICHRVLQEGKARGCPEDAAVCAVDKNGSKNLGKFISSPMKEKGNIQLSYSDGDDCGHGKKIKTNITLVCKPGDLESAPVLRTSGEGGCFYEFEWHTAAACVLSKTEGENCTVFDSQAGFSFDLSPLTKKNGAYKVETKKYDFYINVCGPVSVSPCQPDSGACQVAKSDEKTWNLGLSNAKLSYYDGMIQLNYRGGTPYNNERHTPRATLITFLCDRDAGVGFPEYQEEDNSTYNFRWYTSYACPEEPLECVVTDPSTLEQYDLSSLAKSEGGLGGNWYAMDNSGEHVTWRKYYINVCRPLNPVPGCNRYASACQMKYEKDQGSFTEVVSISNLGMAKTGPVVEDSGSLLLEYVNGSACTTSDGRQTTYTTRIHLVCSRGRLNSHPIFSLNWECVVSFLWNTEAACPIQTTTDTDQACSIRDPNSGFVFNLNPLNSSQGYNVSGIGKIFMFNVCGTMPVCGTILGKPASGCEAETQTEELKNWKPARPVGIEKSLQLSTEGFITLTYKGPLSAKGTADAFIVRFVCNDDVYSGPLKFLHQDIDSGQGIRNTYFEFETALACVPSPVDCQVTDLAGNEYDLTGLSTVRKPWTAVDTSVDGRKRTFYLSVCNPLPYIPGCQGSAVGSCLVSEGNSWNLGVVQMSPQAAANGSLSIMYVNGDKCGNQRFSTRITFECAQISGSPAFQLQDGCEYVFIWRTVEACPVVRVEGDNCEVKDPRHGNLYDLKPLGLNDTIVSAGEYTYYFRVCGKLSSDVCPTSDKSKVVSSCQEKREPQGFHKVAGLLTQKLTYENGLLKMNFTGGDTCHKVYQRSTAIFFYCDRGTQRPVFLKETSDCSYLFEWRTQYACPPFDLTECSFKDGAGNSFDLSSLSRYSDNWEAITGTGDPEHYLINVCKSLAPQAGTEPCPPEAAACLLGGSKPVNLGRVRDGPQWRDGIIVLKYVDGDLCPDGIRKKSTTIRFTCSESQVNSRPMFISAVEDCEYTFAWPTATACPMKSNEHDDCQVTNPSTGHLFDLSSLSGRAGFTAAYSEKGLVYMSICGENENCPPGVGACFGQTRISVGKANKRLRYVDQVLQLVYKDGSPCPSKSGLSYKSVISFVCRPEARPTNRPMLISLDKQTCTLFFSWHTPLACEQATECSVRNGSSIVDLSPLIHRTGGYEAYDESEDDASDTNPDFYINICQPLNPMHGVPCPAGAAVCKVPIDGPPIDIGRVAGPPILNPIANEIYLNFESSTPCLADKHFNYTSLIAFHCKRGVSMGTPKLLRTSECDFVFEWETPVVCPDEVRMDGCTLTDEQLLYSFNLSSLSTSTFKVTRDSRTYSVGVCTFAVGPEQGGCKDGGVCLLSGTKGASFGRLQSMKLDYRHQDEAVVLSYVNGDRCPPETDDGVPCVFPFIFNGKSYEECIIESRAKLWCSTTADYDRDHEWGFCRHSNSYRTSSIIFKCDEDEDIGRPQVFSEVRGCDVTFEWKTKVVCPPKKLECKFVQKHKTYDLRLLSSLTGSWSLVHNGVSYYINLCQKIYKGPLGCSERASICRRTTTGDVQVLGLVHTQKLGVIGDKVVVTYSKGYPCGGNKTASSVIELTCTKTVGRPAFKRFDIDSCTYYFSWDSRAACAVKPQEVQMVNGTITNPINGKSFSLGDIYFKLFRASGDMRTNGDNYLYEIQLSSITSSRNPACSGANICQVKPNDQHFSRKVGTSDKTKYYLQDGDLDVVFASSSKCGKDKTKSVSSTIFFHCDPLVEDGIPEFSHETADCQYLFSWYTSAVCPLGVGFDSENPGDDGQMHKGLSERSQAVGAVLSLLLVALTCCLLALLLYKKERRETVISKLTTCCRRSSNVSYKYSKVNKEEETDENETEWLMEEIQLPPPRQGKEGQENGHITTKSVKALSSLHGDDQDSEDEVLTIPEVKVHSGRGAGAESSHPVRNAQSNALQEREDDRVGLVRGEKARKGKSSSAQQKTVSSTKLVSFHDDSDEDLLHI

Row | SMILES | GALC enzyme activity in culture supernatant (normal skin fibroblast; Day 5, normal cell) | total β-Hex enzyme activity in culture supernatant (normal skin fibroblast; Day 5, normal cell) | α-Fuc enzyme activity in culture supernatant (normal skin fibroblast; Day 5, normal cell) | α-Gal enzyme activity in culture supernatant (normal skin fibroblast; Day 5, normal cell) | α-Gluc enzyme activity in culture supernatant (normal skin fibroblast; Day 5, normal cell) | α-Iduro enzyme activity in culture supernatant (normal skin fibroblast; Day 5, normal cell) | α-Man enzyme activity in culture supernatant (normal skin fibroblast; Day 5, normal cell) | β-Gal enzyme activity in culture supernatant (normal skin fibroblast; Day 5, normal cell) | β-Gluc enzyme activity in culture supernatant (normal skin fibroblast; Day 5, normal cell) | β-Glucuro enzyme activity in culture supernatant (normal skin fibroblast; Day 5, normal cell) | β-Hex A enzyme activity in culture supernatant (normal skin fibroblast; Day 5, normal cell) | GALC enzyme activity in culture supernatant (normal skin fibroblast; Day 7, normal cell) | total β-Hex enzyme activity in culture supernatant (normal skin fibroblast; Day 7, normal cell) | α-Fuc enzyme activity in culture supernatant (normal skin fibroblast; Day 7, normal cell) | α-Gal enzyme activity in culture supernatant (normal skin fibroblast; Day 7, normal cell) | α-Gluc enzyme activity in culture supernatant (normal skin fibroblast; Day 7, normal cell) | α-Iduro enzyme activity in culture supernatant (normal skin fibroblast; Day 7, normal cell) | α-Man enzyme activity in culture supernatant (normal skin fibroblast; Day 7, normal cell) | β-Gal enzyme activity in culture supernatant (normal skin fibroblast; Day 7, normal cell) | excretion of group of lysosomal enzymes compared with no reagent added (normal skin fibroblast; normal skin fibroblast) | other results
1 | Cl.N [NH4Cl, ammonium chloride] | 0.55 nmol/h/µL | 736.1 nmol/h/µL | 6.68 nmol/h/µL | 0 nmol/h/µL | 1.92 nmol/h/µL | 3.61 nmol/h/µL | 137.1 nmol/h/µL | 8.20 nmol/h/µL | 4.53 nmol/h/µL | 3.85 nmol/h/µL | 67.0 nmol/h/µL | 0.50 nmol/h/µL | 1239.2 nmol/h/µL | 5.70 nmol/h/µL | 0.84 nmol/h/µL | 4.51 nmol/h/µL | 13.90 nmol/h/µL | 200.0 nmol/h/µL | 11.65 nmol/h/µL | excreted in larger amounts | excretion of group of lysosomal enzymes compared with no addition of ammonium chloride (COS-1 cell; COS-1 cell, Table 3): excreted in larger amounts; GALC enzyme activity in culture supernatant (COS-1 cell; Day 3, COS1, NH4Cl 20 mM): 0.41 nmol/h/µL; total β-Hex enzyme activity in culture supernatant (COS-1 cell; Day 3, COS1, NH4Cl 20 mM): 799.8 nmol/h/µL; α-Fuc enzyme activity in culture supernatant (COS-1 cell; Day 3, COS1, NH4Cl 20 mM): 24.2 nmol/h/µL; α-Gal enzyme activity in culture supernatant (COS-1 cell; Day 3, COS1, NH4Cl 20 mM): 10.60 nmol/h/µL; α-Gluc enzyme activity in culture supernatant (COS-1 cell; Day 3, COS1, NH4Cl 20 mM): 7.96 nmol/h/µL; α-Iduro enzyme activity in culture supernatant (COS-1 cell; Day 3, COS1, NH4Cl 20 mM): 13.60 nmol/h/µL; α-Man enzyme activity in culture supernatant (COS-1 cell; Day 3, COS1, NH4Cl 20 mM): 178.0 nmol/h/µL; β-Gal enzyme activity in culture supernatant (COS-1 cell; Day 3, COS1, NH4Cl 20 mM): 25.26 nmol/h/µL; β-Gluc enzyme activity in culture supernatant (COS-1 cell; Day 3, COS1, NH4Cl 20 mM): 6.64 nmol/h/µL; β-Glucuro enzyme activity in culture supernatant (COS-1 cell; Day 3, COS1, NH4Cl 20 mM): 21.37 nmol/h/µL; β-Hex A enzyme activity in culture supernatant (COS-1 cell; Day 3, COS1, NH4Cl 20 mM): 85.9 nmol/h/µL; β-Gluc enzyme activity in culture supernatant (normal skin fibroblast; Day 7, normal cell): 5.39 nmol/h/µL; β-Glucuro enzyme activity in culture supernatant (normal skin fibroblast; Day 7, normal cell): 12.78 nmol/h/µL; β-Hex A enzyme activity in culture supernatant (normal skin fibroblast; Day 7, normal cell): 157.9 nmol/h/µL; kinds of lysosomal enzymes contained in culture supernatant (normal skin fibroblast; normal skin fibroblast, ammonium chloride 20 mM, seven days, FIG. 1): at least 10 kinds
2 | O=C[C@@H](O)[C@@H](O)[C@H](O)[C@H](O)COP(=O)(O)O [mannose 6-phosphate] |  |  |  |  |  |  |  |  |  |  |  |  |  |  |  |  |  |  |  |  | β-glucosidase in mannose 6-phosphate competitive inhibition test [1]: not to be affected; intracellular uptake of lysosomal enzymes ([1]; mannose 6-phosphate 0, 5 or 10 mM with lysosomal enzyme group sample): concentration-dependently and competitively inhibited
3 | CCN(CC)CCCC(C)Nc1ccnc2cc(Cl)ccc12 (centres unmarked) [CQ, chloroquine] |  |  |  |  |  |  |  |  |  |  |  |  |  |  |  |  |  |  |  | excreted in larger amounts | 
4 | CO/C1=C\C(C)=C\[C@@H](C)[C@@H](O)[C@@H](C)C/C(C)=C/C=C/[C@H](OC)[C@@H]([C@@H](C)[C@@H](O)[C@H](C)[C@@]2(O)C[C@@H](O)[C@H](C)[C@@H](C(C)C)O2)OC1=O [Bafilo, bafilomycin A1] | 0.64 nmol/h/µL | 437.7 nmol/h/µL | 3.49 nmol/h/µL | 0 nmol/h/µL | 1.13 nmol/h/µL | 0.57 nmol/h/µL | 100.4 nmol/h/µL | 4.65 nmol/h/µL | 3.97 nmol/h/µL | 4.07 nmol/h/µL | 18.9 nmol/h/µL | 0.69 nmol/h/µL | 300.5 nmol/h/µL | 3.97 nmol/h/µL | 0.91 nmol/h/µL | 2.44 nmol/h/µL | 0.64 nmol/h/µL | 123.9 nmol/h/µL | 2.93 nmol/h/µL | excreted in larger amounts | β-Gluc enzyme activity in culture supernatant (normal skin fibroblast; Day 7, normal cell): 8.65 nmol/h/µL; β-Glucuro enzyme activity in culture supernatant (normal skin fibroblast; Day 7, normal cell): 8.03 nmol/h/µL; β-Hex A enzyme activity in culture supernatant (normal skin fibroblast; Day 7, normal cell): 22.5 nmol/h/µL
